Tested on: transgenic Arabidopsis thaliana T1 plants
Experiment: Detection of the herbicide tolerance of the transgenic Arabidopsis thaliana plants
Type: in vivo
Settings: for The grade of pesticide damage/plant: 0 / The grade of pesticide damage/plant: 1 / The grade of pesticide damage/plant: 2 / The grade of pesticide damage/plant: 3: 7 DAT
From the text: The transformed Arabidopsis thaliana T1 plants were initially selected using glufosinate herbicide. The Arabidopsis thaliana T1 plants (PPOA-01) into which the PPOA-01 nucleotide sequence was introduced, the Arabidopsis thaliana T1 plants (PPOB-01) into which the PPOB-01 nucleotide sequence was introduced, the Arabidopsis thaliana T1 plants (PPOC-01) into which the PPOC-01 nucleotide sequence was introduced, the Arabidopsis thaliana T1 plants (PPOD-01) into which the PPOD-01 nucleotide sequence was introduced, the Arabidopsis thaliana T1 plants (PPOE-01) into which the PPOE-01 nucleotide sequence was introduced, the Arabidopsis thaliana T1 plants (PPOF-01) into which the PPOF-01 nucleotide sequence was introduced, the Arabidopsis thaliana T1 plants (PPO-AP-01) into which the PPO-AP-01 nucleotide sequence was introduced, and the Arabidopsis thaliana T1 plants (control vector) into which the control vector was introduced, the wild-type Arabidopsis thaliana plants (CK) (with 24 plants being included in each genotype) (18 days after sowing) were sprayed with saflufenacil at three concentrations (25 g ai/ha (one-fold field concentration, 1×), 100 g ai/ha (four-fold field concentration, 4×), and 0 g ai/ha (water, 0×)), oxyfluorfen at three concentrations (180 g ai/ha (one-fold field concentration, 1×), 720 g ai/ha (four-fold field concentration, 4×), and 0 g ai/ha (water, 0×)), and flumioxazin at three concentrations (60 g ai/ha (one-fold field concentration, 1×), 240 g ai/ha (four-fold field concentration, 4×), and 0 g ai/ha (water, 0×) to determine the tolerance of Arabidopsis thaliana to the herbicides. After 7 days of spraying (7 DAT), the damage level of each plant caused by the herbicide was evaluated according to the average of the damage levels (%) of plants (the average of the damage levels (%) of plants=the injured leaf area/the total leaf area×100%), i.e., the grade of pesticide damage: grade 0 means that the growth status of plants is essentially consistent with those sprayed with the blank solvent (water); grade 1 means that the average of the damage levels of plants is less than 10%; grade 2 means that the average of the damage levels of plants is greater than 10%; and grade 3 means that the average of the damage levels of plants is 100%. The plants having a growth status falling within grades 0 and 1 are classified as highly resistant plants; those having a growth status falling within grade 2 are classified as poorly resistant plants; and those having a growth status falling within grade 3 are classified as non-resistant plants.

[1] = genotype Control vector, 25 g ai/ha
[2] = genotype Control vector, 100 g ai/ha
[3] = genotype PPO-AP-01, 100 g ai/ha

Structure (SMILES): CC(C)N(C)S(=O)(=O)NC(=O)c1cc(-n2c(=O)cc(C(F)(F)F)n(C)c2=O)c(F)cc1Cl [saflufenacil, N′-[2-chloro-4-fluoro-5-(3-methyl-2,6-dioxo-4-(trifluoromethyl)-3,6-dihydro-1 (2H)-pyrimidine)benzoyl]-N-isopropyl-N-methylsulfamide]
- effective dose distinguishing sensitive plants from plants having an average level of resistance (Arabidopsis thaliana): 25 g ai/ha
- The grade of pesticide damage/plant: 0 (genotype CK, 25 g ai/ha): 0 plant
- The grade of pesticide damage/plant: 1 (genotype CK, 25 g ai/ha): 0 plant
- The grade of pesticide damage/plant: 2 (genotype CK, 25 g ai/ha): 0 plant
- The grade of pesticide damage/plant: 3 (genotype CK, 25 g ai/ha): 24 plant
- The grade of pesticide damage/plant: 0 (genotype CK, 100 g ai/ha): 0 plant
- The grade of pesticide damage/plant: 1 (genotype CK, 100 g ai/ha): 0 plant
- The grade of pesticide damage/plant: 2 (genotype CK, 100 g ai/ha): 0 plant
- The grade of pesticide damage/plant: 3 (genotype CK, 100 g ai/ha): 24 plant
- The grade of pesticide damage/plant: 0 [1]: 0 plant
- The grade of pesticide damage/plant: 1 [1]: 0 plant
- The grade of pesticide damage/plant: 2 [1]: 0 plant
- The grade of pesticide damage/plant: 3 [1]: 24 plant
- The grade of pesticide damage/plant: 0 [2]: 0 plant
- The grade of pesticide damage/plant: 1 [2]: 0 plant
- The grade of pesticide damage/plant: 2 [2]: 0 plant
- The grade of pesticide damage/plant: 3 [2]: 24 plant
- The grade of pesticide damage/plant: 0 (genotype PPO-AP-01, 25 g ai/ha): 0 plant
- The grade of pesticide damage/plant: 1 (genotype PPO-AP-01, 25 g ai/ha): 0 plant
- The grade of pesticide damage/plant: 2 (genotype PPO-AP-01, 25 g ai/ha): 0 plant
- The grade of pesticide damage/plant: 3 (genotype PPO-AP-01, 25 g ai/ha): 24 plant
- The grade of pesticide damage/plant: 0 [3]: 0 plant
- The grade of pesticide damage/plant: 1 [3]: 0 plant
- The grade of pesticide damage/plant: 2 [3]: 0 plant
- The grade of pesticide damage/plant: 3 [3]: 24 plant
- tolerance to the herbicide (in words) (genotype PPO-AP-01, at different concentrations): no tolerance
- The grade of pesticide damage/plant: 0 (genotype PPOA-01, 25 g ai/ha): 24 plant
- The grade of pesticide damage/plant: 1 (genotype PPOA-01, 25 g ai/ha): 0 plant
- The grade of pesticide damage/plant: 2 (genotype PPOA-01, 25 g ai/ha): 0 plant
- The grade of pesticide damage/plant: 3 (genotype PPOA-01, 25 g ai/ha): 0 plant
- The grade of pesticide damage/plant: 0 (genotype PPOA-01, 100 g ai/ha): 0 plant
- The grade of pesticide damage/plant: 1 (genotype PPOA-01, 100 g ai/ha): 24 plant
- The grade of pesticide damage/plant: 2 (genotype PPOA-01, 100 g ai/ha): 0 plant
- The grade of pesticide damage/plant: 3 (genotype PPOA-01, 100 g ai/ha): 0 plant
- The grade of pesticide damage/plant: 0 (genotype PPOB-01, 25 g ai/ha): 24 plant
- The grade of pesticide damage/plant: 1 (genotype PPOB-01, 25 g ai/ha): 0 plant
- The grade of pesticide damage/plant: 2 (genotype PPOB-01, 25 g ai/ha): 0 plant
- The grade of pesticide damage/plant: 3 (genotype PPOB-01, 25 g ai/ha): 0 plant
- The grade of pesticide damage/plant: 0 (genotype PPOB-01, 100 g ai/ha): 0 plant
- The grade of pesticide damage/plant: 1 (genotype PPOB-01, 100 g ai/ha): 24 plant
- The grade of pesticide damage/plant: 2 (genotype PPOB-01, 100 g ai/ha): 0 plant
- The grade of pesticide damage/plant: 3 (genotype PPOB-01, 100 g ai/ha): 0 plant
- The grade of pesticide damage/plant: 0 (genotype PPOC-01, 25 g ai/ha): 24 plant
- The grade of pesticide damage/plant: 1 (genotype PPOC-01, 25 g ai/ha): 0 plant
- The grade of pesticide damage/plant: 2 (genotype PPOC-01, 25 g ai/ha): 0 plant
- The grade of pesticide damage/plant: 3 (genotype PPOC-01, 25 g ai/ha): 0 plant
- The grade of pesticide damage/plant: 0 (genotype PPOC-01, 100 g ai/ha): 0 plant
- The grade of pesticide damage/plant: 1 (genotype PPOC-01, 100 g ai/ha): 24 plant
- The grade of pesticide damage/plant: 2 (genotype PPOC-01, 100 g ai/ha): 0 plant
- The grade of pesticide damage/plant: 3 (genotype PPOC-01, 100 g ai/ha): 0 plant
- The grade of pesticide damage/plant: 0 (genotype PPOD-01, 25 g ai/ha): 24 plant
- The grade of pesticide damage/plant: 1 (genotype PPOD-01, 25 g ai/ha): 0 plant
- The grade of pesticide damage/plant: 2 (genotype PPOD-01, 25 g ai/ha): 0 plant
- The grade of pesticide damage/plant: 3 (genotype PPOD-01, 25 g ai/ha): 0 plant
- The grade of pesticide damage/plant: 0 (genotype PPOD-01, 100 g ai/ha): 0 plant
- The grade of pesticide damage/plant: 1 (genotype PPOD-01, 100 g ai/ha): 24 plant
- The grade of pesticide damage/plant: 2 (genotype PPOD-01, 100 g ai/ha): 0 plant
- The grade of pesticide damage/plant: 3 (genotype PPOD-01, 100 g ai/ha): 0 plant
- The grade of pesticide damage/plant: 0 (genotype PPOE-01, 25 g ai/ha): 24 plant
- The grade of pesticide damage/plant: 1 (genotype PPOE-01, 25 g ai/ha): 0 plant
- The grade of pesticide damage/plant: 2 (genotype PPOE-01, 25 g ai/ha): 0 plant
- The grade of pesticide damage/plant: 3 (genotype PPOE-01, 25 g ai/ha): 0 plant
- The grade of pesticide damage/plant: 0 (genotype PPOE-01, 100 g ai/ha): 0 plant
- The grade of pesticide damage/plant: 1 (genotype PPOE-01, 100 g ai/ha): 24 plant
- The grade of pesticide damage/plant: 2 (genotype PPOE-01, 100 g ai/ha): 0 plant
- The grade of pesticide damage/plant: 3 (genotype PPOE-01, 100 g ai/ha): 0 plant
- The grade of pesticide damage/plant: 0 (genotype PPOF-01, 25 g ai/ha): 24 plant
- The grade of pesticide damage/plant: 1 (genotype PPOF-01, 25 g ai/ha): 0 plant
- The grade of pesticide damage/plant: 2 (genotype PPOF-01, 25 g ai/ha): 0 plant
- The grade of pesticide damage/plant: 3 (genotype PPOF-01, 25 g ai/ha): 0 plant
- The grade of pesticide damage/plant: 0 (genotype PPOF-01, 100 g ai/ha): 0 plant
- The grade of pesticide damage/plant: 1 (genotype PPOF-01, 100 g ai/ha): 24 plant
- The grade of pesticide damage/plant: 2 (genotype PPOF-01, 100 g ai/ha): 0 plant
- The grade of pesticide damage/plant: 3 (genotype PPOF-01, 100 g ai/ha): 0 plant
- tolerance to the herbicide (in words) (genotypes PPOA-01 to PPOF-01, at different concentrations, compared with the control vector and CK): high-resistant tolerance

Reference: patent US20250275540A1, “USE OF PROTOPORPHYRINOGEN OXIDASE” (BEIJING DABEINONG BIOTECHNOLOGY CO., LTD., priority 2022, published 2025)
